Where two headings read alike, the source gives them in different places.
Experiments:
[1] = cited from earlier work
[2] = Cellvento CHO 200, text
[3] = in water at 25° C.; cited from earlier work

Structure (SMILES)	Solubility (water) PubChem Database ([1]; at 25° C.)	other results
CSCC[C@H](N)C(=O)O [L-Methionine]	56.6 g/L water g/l	–
Cl.NCCCC[C@H](N)C(=O)O [L-LYSINE MONOHYDROCHLORIDE]	>100 g/100 g/100 ml	–
O=C[C@@H](O)[C@@H](O)[C@H](O)[C@H](O)CO [D(+)-Mannose]	–	Solubility (water) PubChem Database ([1]; at 17° C.): 713 g/L bei
O=C(CO)[C@@H](O)[C@H](O)[C@H](O)CO [D(−)-FRUCTOSE]	200 g/100 ml	–
N[C@@H](CSSC[C@H](N)C(=O)O)C(=O)O [L-Cystine, L-cystine]	–	Maximal concentration in Cellvento CHO 200 at which the medium can still be completely dissolved in water [2]: below 0.1 g/L; Solubility [3]: nearly insoluble
C[C@H](N)C(=O)O [L-ALANINE]	164 g/l water	–
[Ca+2].[Cl-].[Cl-] [Calcium Chloride anhydrous]	–	Solubility (water) PubChem Database ([1]; at 20° C.): 745 g/l at
[Cl-].[K+] [Potassium chloride]	35.5/100 g /100 g water	–
